Data on five compounds can be found in patent publication US20020156077A1, “Non-steroidal estrogen receptor ligands” (priority 2001, published 2002).

The test system of experiment [1] is MCF-7 cells. Put plainly: MCF-7 cell proliferation assay (MTT), estradiol stimulated versus unstimulated. Format: cell-based, human. To be noted: FIGS. 1 and 2. From the text:
Those skilled in the art will appreciate that several acceptable estrogen receptor-binding assays are known and available for initial screening of the compounds of the present invention. The initial screen chosen was a human cell line assay, namely the MCF-7 cell proliferation assay for detecting anti-estrogenic/estrogenic activity. The MCF-7 human breast cancer cell line has been used as an industry standard for the evaluation of estrogen receptor antagonists. MCF-7 cells are estrogen-receptor positive (ER+) cancer cells that respond to estradiol stimulation. Antiestrogenic activity is measured in terms of a test article's ability to inhibit estradiol stimulated proliferation, implying an antagonistic action on the estrogen receptor and estogenic activity can be inferred from increased proliferation. The following testing procedure was used.
MCF-7 cells were maintained in RPMI medium free of phenol red and supplemented with 5% charcoal-stripped foetal calf serum, hydrocortisone, bovine insulin, penicillin and streptomycin until they reached 70% confluence. […] Cell survival was evaluated after 3-6 days, by replacing the culture media with 150 μl of fresh medium containing 10 mM 4-(2-hydroxyethyl)-1-piperazineethamsulfonic acid buffer (pH 7.4) followed by addition of 50 μl of 2.5 mg/ml of 3-(4,5-dimethylthiazo-2-yl)-2,5-diphenyltetrazolium bromide (MTT). […]

For experiment [2], the system named is tamoxifen-resistant breast cancers. Conditions: tamoxifen-resistant breast cancer patients; cited from earlier work.
Experiment [3] concerns the target T1, human recombinant estrogen receptor alpha (Homo sapiens, UniProt P03372).
T1 construct: purchased PanVera Corporation
T1 sequence (P03372 1-595): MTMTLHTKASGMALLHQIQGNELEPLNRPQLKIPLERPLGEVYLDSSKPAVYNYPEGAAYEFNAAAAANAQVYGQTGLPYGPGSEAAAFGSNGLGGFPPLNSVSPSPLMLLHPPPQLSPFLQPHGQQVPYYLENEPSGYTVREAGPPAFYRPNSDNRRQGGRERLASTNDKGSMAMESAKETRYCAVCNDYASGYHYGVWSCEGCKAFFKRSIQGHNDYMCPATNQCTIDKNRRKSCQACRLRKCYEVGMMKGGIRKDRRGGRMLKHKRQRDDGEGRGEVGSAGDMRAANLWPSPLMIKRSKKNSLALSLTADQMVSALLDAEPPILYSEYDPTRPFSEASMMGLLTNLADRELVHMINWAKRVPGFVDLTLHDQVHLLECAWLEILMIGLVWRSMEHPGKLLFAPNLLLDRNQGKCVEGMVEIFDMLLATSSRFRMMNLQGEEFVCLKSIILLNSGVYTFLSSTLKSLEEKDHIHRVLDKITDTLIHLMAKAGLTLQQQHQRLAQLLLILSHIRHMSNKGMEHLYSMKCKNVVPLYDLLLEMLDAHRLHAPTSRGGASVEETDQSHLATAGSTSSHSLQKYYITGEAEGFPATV
Put plainly: Estrogen receptor alpha binding assay, displacement of [3H] Estradiol. Here is the method:
(§1) The human estrogen receptor occurs in two subtypes, alpha and beta. The stable expression of these individual receptor subtypes in cells provides a rapid and accurate means of quantifying the direct interaction of a test article with the estrogen binding sites. Briefly, this assay is conducted in 96 well plates where a series of concentrations of test article are used to displace tritiated estradiol from either estrogen receptor alpha or estrogen receptor beta bearing cell membranes, under equilibrium conditions. […] This measurement is the primary test for mediation of the estrogen receptor and can also be used to measure the relative selectivity of the test article for either the alpha or beta subtype.
The alpha subtype assay measures the binding of [^3H] Estradiol to the human recombinant estrogen receptor. […] Briefly, after proper dilution, a 4.5 ng aliquot of receptor protein in modified Tris-HCL pH 7.5 buffer is incubated with 0.5 nM [^3H] Estradiol for 2 hours at 25° C. Non-specific binding is estimated in the presence of 1.0 μM diethylstilbestrol. Membranes are filtered and washed 3 times, and the filters are counted to determine [^3H] Estradiol specifically bound. Under the same conditions the receptor protein is incubated with varied concentrations of test article ranging from 1 nM to 1 μM and the displacement of [^3H] Estradiol is measured in duplicate. The measurement of the displaced tritiated estradiol allows the determination of an IC50 value, a direct measure of the test articles interaction with the estrogen receptor alpha.

Experiment [4] addresses human recombinant estrogen receptor beta (Homo sapiens, UniProt Q92731). Put plainly: Estrogen receptor beta binding assay, displacement of [3H] Estradiol. On the procedure:
as §1
The beta subtype assay also allowed the determination of an IC50 value of the test article under the same conditions as for the alpha subtype assay with the exception that a 7.5 ng aliquot of receptor protein preparation was used.
On the technique in general: In a radioligand displacement assay an active substance lowers the binding of a labelled ligand.

The mark [5] stands for this setting: 0.5 nM [3H] Estradiol, 2 hours at 25° C, 4.5 ng receptor protein, read-out: IC50 Value, ER Subtype Alpha.
The mark [6] stands for this setting: 0.5 nM [3H] Estradiol, 2 hours at 25° C, 7.5 ng receptor protein, read-out: IC50 Value, ER Subtype Beta.

Molecules are shown by their SMILES. Read-outs that look alike come from different tables or passages of the source.

Chain of human recombinant estrogen receptor beta (Q92731 whole entry): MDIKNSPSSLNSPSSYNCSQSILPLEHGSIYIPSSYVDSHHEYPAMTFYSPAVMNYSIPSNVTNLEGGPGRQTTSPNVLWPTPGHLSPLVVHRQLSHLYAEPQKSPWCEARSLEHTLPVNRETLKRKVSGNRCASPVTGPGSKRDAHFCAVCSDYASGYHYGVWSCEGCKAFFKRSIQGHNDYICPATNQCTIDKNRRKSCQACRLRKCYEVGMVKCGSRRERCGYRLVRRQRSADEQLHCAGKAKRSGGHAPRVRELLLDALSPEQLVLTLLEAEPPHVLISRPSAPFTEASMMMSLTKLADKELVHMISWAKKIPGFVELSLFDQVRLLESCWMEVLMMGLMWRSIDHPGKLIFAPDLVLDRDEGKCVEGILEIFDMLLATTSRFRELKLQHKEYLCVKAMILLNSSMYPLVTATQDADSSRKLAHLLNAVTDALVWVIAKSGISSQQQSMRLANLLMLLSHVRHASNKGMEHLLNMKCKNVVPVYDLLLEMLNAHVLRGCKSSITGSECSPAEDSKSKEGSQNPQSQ

For the compound `CC(=O)c1ccc2c(c1)c(-c1ccc(OCCN3CCCCC3)cc1)cc1cc(O)cc(C)c12` [Formula 4, 1-[7-hydroxy-5-methyl-10-[4-(2-piperidin-1-yl-ethoxy)-phenyl]-phenanthren-2-yl]-ethanone], the “effect on estradiol stimulated MCF-7 cell proliferation (shift of dose-response curves)” value in experiment [1] is on record as “antagonizing the effect of estradiol”.

Consider `C[C@]12CC[C@@H]3c4ccc(O)cc4C[C@@H](CCCCCCCCC[S+]([O-])CCCC(F)(F)C(F)(F)F)[C@H]3[C@@H]1CC[C@@H]2O` (stereo partly drawn) [ICI 182780], for which the “tamoxifen-resistant patients who responded” value in experiment [2] was “approximately two-thirds”.

As usually defined, the IC50 is the point on the concentration scale where inhibition reaches its midpoint. As to `Cc1cc(O)cc2cc(-c3ccc(OCCN4CCCCC4)cc3)c3cc(C(=O)C(C)C)ccc3c12` [formula 3, 1-[7-hydroxy-5-methyl-10-[4-(2-piperidin-1-yl-ethoxy)-phenyl]-phenanthren-2-yl]-2-methyl-propan-1-one], the 50% inhibitory concentration (IC50) is 39 nM in experiment [3] (setting [5]) and 120 nM in experiment [4] (setting [6]). The “effect on estradiol stimulated MCF-7 cell proliferation (shift of dose-response curves)” value in experiment [1] is on record as “antagonizing the effect of estradiol”.

In the case of `C=C(C)c1ccc2c(c1)c(-c1ccc(OCCN3CCCCC3)cc1)cc1cc(O)cc(C)c12` [formula 5], the figures for the IC50 in experiment [3] (setting [5]) and in experiment [4] were 32 nM and 20 nM, respectively.

Turning to `CC(C)=C(C)c1ccc2c(c1)c(-c1ccc(OCCN3CCCCC3)cc1)cc1cc(O)cc(C)c12` [formula 6, 7-(1,2-dimethylpropenyl)-4-methyl-9-[4-(2-piperidin-1-yl-ethoxy)-phenyl]-phenanthren-2-ol], the IC50 in experiment [3] amounted to 18 nM; in experiment [4] (setting [6]) it was 9 nM.
